These results are taken from patent publication US20100168112A1, “2-Substituted and 4-substituted aryl nitrone compounds” (RENOVIS, INC., priority 2004, published 2010).

Series [1] concerns 1K1C rats. The experiment in a line: Kidney ischemia-reperfusion injury, one-kidney one-clip (1K1C) model, fractional excretion of sodium. The format is in vivo. The note with it: mean ± SEM. Here is the method: Rats were individually housed in a modified cage that was equipped with a raised mesh bottom to separate the fecal product from urine. Before the test, all animals were withheld from food and water overnight. In the morning of the test, normal saline (i.e., 0.9% sodium chloride) was given via oral gavage at […] (Lipschitz, W. L. Hadidian, Z. & Kerpcar, A.: Bioassay of diuretics., J. Pharmacol. Exp. Ther., 79: 97-110, 1943). Samples of blood and urine were collected (standard procedures) at time points (1 and/or 5 hrs after fluid intake) from animals, centrifuged, and kept at 4 degrees until analysis for factors that reflect renal functions. Sodium and creatinine levels were determined by Quality Clinical Labs, Inc. (Mountain View, Calif.). Sodium concentrations were determined by ion selective electrode (standard procedures). Creatinine levels were determined by the alkaline picrated (Jaffe) reaction as described (Liobat-Estelles, M., Sevillano-Cabeja, A. & Campines-Falco, P.: Kinetic chemometric studies of the determination of creatinine using the Jaffe reaction. Part I: kinetics of the reaction; analytical conclusion. Analyst, 11: 597-602, 1989). Fractional excretion of sodium (FENa+), a parameter for ion-handling by the kidney, was calculated, using the following equation: =UNa×Pcr/PNa×Ucr, where UNa is the concentration of sodium in urine; Pcr is the plasma concentration of creatinine; PNa is the […]; and Ucr is the concentration of creatinine in the urine.
After the data for the calculation of basal levels of FENa+ was obtained (Table 16), rats were anesthetized with pentobarbital (65 mg/kg, i.p.). The abdominal region was shaved with a safety razor and sterilized with povidone iodine solution. A midline incision was made and the right kidney was exposed. The right renal pedicle and right urether were both ligated twice with 4-0 sutures and cut between the ligations. The right kidney was then removed. 7 days later, these rats, after another overnight food-water deprivation, were randomly assigned into 3 groups and orally given either Compound 62 (50 mg/kg, at the volume of 1 ml/kg,p.o.) or its vehicle (i.e., 96% of 0.5% CMC and 4 of 20% Tween 80, at the volume of 1 ml/kg, p.o.) 1 hr before kidney ischemia was produced. Positive controls were performed using quercetin (30 mg/kg, i.p.) given 2 hrs before ischemia (Kahraman, A., Erkasap, N., Serteser, M. & Koken, T.: Protective effect of quercetin on renal ischemia/reperfusion injury in rats. J. Nephrol., 16: 219-224, 2003). Animals were then anesthetized and had their left kidneys exposed after opening of their abdominal cavities. A non-traumatic vascular clamp was applied to the left renal pedicle (the ischemia phase), which was released 45 min later (the reperfusion phase). Lipschitz test was then conducted to measure ion-handling capabilities. Normal saline was orally administered at […] as soon as the vascular clamp was released. 60- and 300-min after reperfusion, plasma and urine samples were obtained.

A short description of series [2]: DPPH free radical-scavenging/antioxidant assay. The format is biochemical. The note with it: 50 μM DPPH in 80% methanol; 24 h time point; read-out: EC50 (concentration at which a compound reduces by 50% the peak absorbance of DPPH at 520 nm). A digest of the protocol:
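Compounds diluted 100-fold from DMSO stocks into 50 μM DPPH in 80% methanol; absorbance at 520 nm followed kinetically to steady state, with the 24 h reading used. EC50 interpolated from OD520 versus concentration; Trolox, BHA, PBN and S-PBN as positive controls, DMSO as vehicle.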
For orientation: DPPH is a stable violet radical that fades when it is reduced.

The nature of series [3]: Pharmacokinetic evaluation following intravenous and oral administration in rats. The format is in vivo. The note with it: male, Sprague-Dawley; for Cmax / Tmax / bioavailability: 5 mg/kg; for Cmax: rat plasma; for Cmax / Tmax: oral gavage, 2 mg/mL at 2.5 mL/kg; for clearance / Vd / Tmax / bioavailability / half-life: plasma, rat; for clearance / Vd / half-life: 1 mg/kg; for clearance / Vd: intravenous administration, 1 mg/mL at 1.0 mL/kg; for clearance: read-out: CI (clearance) (converted); for Vd: read-out: Vd (volume of distribution); for bioavailability: po 2 mg/mL at 2.5 mL/kg vs iv 1 mg/mL at 1.0 mL/kg, dose-normalized, read-out: F (%) oral bioavailability; for half-life: intravenous, read-out: T1/2 elimination half life (converted). Summed up: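 Male Sprague-Dawley rats, fasted, dosed iv (1 mg/mL formulation, 1.0 mL/kg, jugular or tail vein) or by oral gavage (2 mg/mL suspension, 2.5 mL/kg). Plasma sampled from 2 min to 480 min, some to 24 h, and quantified by LC-MS/MS (MRM). Parameters from noncompartmental analysis.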

Series [4] is described as follows: Microsomal stability in rat liver microsomes. The note with it: rat liver microsomes 0.5 mg/ml, 1 mM NADPH, ~500 ng/ml compound, 37° C. It counts as in vitro ADME. Here is the method: Frozen Sprague-Dawley rat liver microsomes (RLM) were thawed on ice and gently mixed before use. The final reaction mixture consisted of a nitrone compound of this invention (at ˜500 ng/ml), 1 mM NADPH, and 0.5 mg/ml of RLM protein in 0.1 M PBS (pH7.4), with organic solvent concentration not exceeding 1% (v/v). Per set of incubations, a positive control compound was included. The mixture was first pre-incubated 3 to 5 minutes at 37° C. without NADPH, and the reaction was then initialized by the addition of NADPH and incubated at 37° C. for up to 30 minutes. An aliquot of the reaction mixture was sampled at the initiation of the reaction and at designated time after reaction started. The drawn samples were quenched with acetonitrile, diluted with mobile phase to ensure the detection of test article in the linear range, and analyzed by LC/MS/MS. Half-life or percentage of remaining nitrone compound was calculated using standard methods. A similar method, or a slight variation of it, was used to test the stability of nitrones in human liver microsomes (HLM).

Series [5] can be described thus: Microsomal stability in human liver microsomes. The format is in vitro ADME. The note with it: NADPH, 37° C. A digest of the protocol:
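Compound (~500 ng/ml) incubated at 37°C for up to 30 min with 0.5 mg/ml microsomal protein and 1 mM NADPH in 0.1 M PBS pH7.4, after 3–5 min preincubation without NADPH. Sprague-Dawley rat or human microsomes; acetonitrile-quenched timepoints analysed by LC/MS/MS for half-life or percent remaining.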
In general terms: Liver microsomes are a subcellular fraction often used to study metabolism.

Series [6] can be described thus: Solubility measurement at pH 7.4. The format is physicochemical. The note with it: aqueous buffer, thermodynamic from solid, phosphate buffer pH 7.4, room temperature.
Where [7] appears, read: 1K1C rats, Compound 62 50 mg/kg p.o. 1 hr before ischemia, quercetin 30 mg/kg i.p. 2 hrs before, 45 min ischemia.

Read-outs that look alike come from different tables or passages of the source.

One may read the Cmax as the highest concentration seen after dosing. By Tmax is commonly meant the time from dosing to the highest level. The bioavailability is dose-corrected exposure relative to a reference, in per cent.

With `O=c1c(O)c(-c2ccc(O)c(O)c2)oc2cc(O)cc(O)c12` [Quercetin, quercetin, reference compound], in series [1] (setting [7]), the “1-hr post-ischemic FENa+ (%)” value amounted to 0.54 ± 0.02 % and the “5-hr post-ischemic FENa+ (%)” value turned out to be 5.23 ± 4.43%. Moreover, in series [1] (rats before 1K1C modeling, group baseline), the “FENa+ (%) pre-surgery (basal) levels” value worked out at 1.60 ± 0.15%.
In the case of `CC(C)S(=O)(=O)c1ccc(/C=[N+](\[O-])C(C)(C)C)c(S(=O)(=O)C(C)C)c1` [Compound 65, N-tert-Butyl-C-(2,4-bis-2-propanesulfonylphenyl)nitrone], in series [2], the EC50 was 500 to 1000 µM. Moreover, in series [3], the concentration peaked (Cmax) at 339 ng/mL, the clearance is 31.5 mL/min/kg, the Vd amounted to 0.98 L/kg and the time to peak (Tmax) stood at 14.4 min. Also, in series [3], the bioavailability turned out to be 13.7% and the half-life was 21 min. The “% of Nitrone Remaining at 30 min (Rat)” value in series [4] was determined as 78%. Further, the “% of Nitrone Remaining at 30 min (Human)” value in series [5] is given as 94%.
Consider `CCN(CC)S(=O)(=O)c1ccccc1/C=[N+](\[O-])C(C)(C)C` [Compound 30, N-tert-Butyl-C-(2-diethylsulfamoylphenyl)nitrone], for which, in series [2], the EC50 was over 1000 µM. Also, in series [3], the concentration peaked (Cmax) at 40 ng/mL, the clearance was 93.8 mL/min/kg, the Vd worked out at 4.15 L/kg and the Tmax worked out at 4.98 min. In addition, in series [3], the bioavailability came out at 1.7% and the half-life is 30.6 min. The solubility in series [6] (read-out: Solubility @ pH 7.4) is 2530 µM. In series [6] (read-out: Solubility @ pH 7.4 (μg/mL)), the solubility was found to be 791 µg/mL. Besides, the “% of Nitrone Remaining at 30 min (Rat)” value in series [4] stood at 7.4%.
